Non-standard residues stand in square brackets, D forms with d. Residues, ends and D or L forms follow the SMILES beside them. pGlu = O=C1CC[C@@H](C(=O)O)N1
Key:
[1] = tested on: rat arterial blood pressure; assay: Potentiation of the hypotensive effect of bradykinin in rats; assay type: in vivo; details: concentrations of 300 nM
Experimental: The hypotensive potentiating activity effect of bradykinin was tested in normotensive and hypertensive male and female Wistar rats, anesthetized with ethylic ether; a cannulae was introduced in the femoral vein for drug administration and in the femoral artery for blood pressure recording. A Gould polygraph was used coupled to a Statham Gould physiological transducer. The arterial pressure variation values were obtained by integration of the areas delimited by the pressure base line, and by comparing them with the values obtained in the control experiment. Toxin effect tests were carried out in normotensive and hypertensive rats by intra-vital microscopy using the mesenteric circulation. The animals were anesthetized, and their body temperature maintained by a heated plate, while the mesentery was trans-illuminated and observed through lenses coupled to a television camera. The vase diameters of these animals were measured with a micrometric screw. Tested substances were administered by a constant flow peristaltic pump or injected in bolus.
Wistar male rats with a body weight between 180 and 220 g were anesthetized with sodic pentabarbital (Hypnol® Cristalia, 50 mg/kg of body weight, intraperitoneally), while the body temperature was maintained between 36.5° C. and 37° C. by a heated plate. […]

[2] = tested on: isolated guinea pig ileum; assay: Potentiation of the contractile activity of bradykinin on isolated guinea pig ileum
Experimental: The potentiating activity of the pools of isolated peptides was tested on the contractile activity of bradykinin on smooth muscle, measured using a preparation of isolated guinea pig ileum. Female guinea pigs with a body weight between 160 and 180 g were used. Before starting the assays, the ileum was kept in TYRODE solution at 37° C. for 30 min. One of the ends of the isolated ileum segment, measuring 1.5 to 2.0 cm, was tied to a semi-ring located at the bottom of a glass container with a capacity of 5 mL, containing the TYRODE physiological solution at 37° C. under constant oxygen bubbling through a capillary. The other extremity of the ileum segment was tied to a previously calibrated registering arm. The tension on the arm was of 1 g, and the ileum contractions were recorded by an REC101 recorder (Pharmacia Biotech).
In order to determine the bradykinin potentiating effect of the samples, a log-dose curve of the effect of bradykinin on the ileum was plotted. Bradykinin activity was determined by measuring the contractions of the isolated guinea pig ileum, and the potentiating activity was expressed as a function of the increase in tissue response to a standard dose of bradykinin.
Pools and fractions were assayed individually and were added 30 seconds before the addition of a simple dose of bradykinin. […]

[3] = target: T1, N site of the ACE (human angiotensin converting enzyme mutant with only the N-terminal active site functional) (Homo sapiens, UniProt P12821, H988K/H992K); assay: Enzymatic assay of inhibition of the N-site of recombinant ACE; assay type: biochemical; details: pentapeptide, range stated in words
T1 construct: The two ACE mutants were expressed as full-length proteins; made in house
Experimental: (§1) The wild-type human angiotensin converting enzyme (ACE) and two mutants, containing only one functional active site, were obtained through stable transfection of chinese hamster ovary cells with the ACE encoding cDNA. The two ACE mutants were expressed as full-length proteins, presenting one of the catalytic sites, N- or C-terminal, inactivated by substitution of the zinc binding histidine residues by lysine residues.
(§2) The enzymatic assays were carried out at 25° C. with the substrate Mca-Ala-Ser-Asp-Lys-DpaOH, in a 50 mM Hepes buffer, pH 6.8, containing 200 mM NaCl and 10 μM ZnCl2. The reactions were continuously monitored by determining the raise in fluorescence at 390 nm emission wave length, and excitation at 340 nm, caused by the cleavage of the substrate (S=Km, 40 μM) by ACE, in a fluorimeter Fluorolite 10000 (Dynatech). The bradykinin potentiating peptides (BPPs) (inhibitors, were pre-incubated with the enzyme 90 min before the addition of the substrate.

NEP = NEP (Homo sapiens, UniProt P08473); assay: Inhibition of NEP; assay type: biochemical
[4] = target: T2, C site of the ACE (human angiotensin converting enzyme mutant with only the C-terminal active site functional) (Homo sapiens, UniProt P12821, H390K/H394K); assay: Enzymatic assay of inhibition of the C-site of recombinant ACE; assay type: biochemical
T2 construct: The two ACE mutants were expressed as full-length proteins; made in house
Experimental: as §1, §2

T2 sequence (P12821 30-1306 H390K/H394K): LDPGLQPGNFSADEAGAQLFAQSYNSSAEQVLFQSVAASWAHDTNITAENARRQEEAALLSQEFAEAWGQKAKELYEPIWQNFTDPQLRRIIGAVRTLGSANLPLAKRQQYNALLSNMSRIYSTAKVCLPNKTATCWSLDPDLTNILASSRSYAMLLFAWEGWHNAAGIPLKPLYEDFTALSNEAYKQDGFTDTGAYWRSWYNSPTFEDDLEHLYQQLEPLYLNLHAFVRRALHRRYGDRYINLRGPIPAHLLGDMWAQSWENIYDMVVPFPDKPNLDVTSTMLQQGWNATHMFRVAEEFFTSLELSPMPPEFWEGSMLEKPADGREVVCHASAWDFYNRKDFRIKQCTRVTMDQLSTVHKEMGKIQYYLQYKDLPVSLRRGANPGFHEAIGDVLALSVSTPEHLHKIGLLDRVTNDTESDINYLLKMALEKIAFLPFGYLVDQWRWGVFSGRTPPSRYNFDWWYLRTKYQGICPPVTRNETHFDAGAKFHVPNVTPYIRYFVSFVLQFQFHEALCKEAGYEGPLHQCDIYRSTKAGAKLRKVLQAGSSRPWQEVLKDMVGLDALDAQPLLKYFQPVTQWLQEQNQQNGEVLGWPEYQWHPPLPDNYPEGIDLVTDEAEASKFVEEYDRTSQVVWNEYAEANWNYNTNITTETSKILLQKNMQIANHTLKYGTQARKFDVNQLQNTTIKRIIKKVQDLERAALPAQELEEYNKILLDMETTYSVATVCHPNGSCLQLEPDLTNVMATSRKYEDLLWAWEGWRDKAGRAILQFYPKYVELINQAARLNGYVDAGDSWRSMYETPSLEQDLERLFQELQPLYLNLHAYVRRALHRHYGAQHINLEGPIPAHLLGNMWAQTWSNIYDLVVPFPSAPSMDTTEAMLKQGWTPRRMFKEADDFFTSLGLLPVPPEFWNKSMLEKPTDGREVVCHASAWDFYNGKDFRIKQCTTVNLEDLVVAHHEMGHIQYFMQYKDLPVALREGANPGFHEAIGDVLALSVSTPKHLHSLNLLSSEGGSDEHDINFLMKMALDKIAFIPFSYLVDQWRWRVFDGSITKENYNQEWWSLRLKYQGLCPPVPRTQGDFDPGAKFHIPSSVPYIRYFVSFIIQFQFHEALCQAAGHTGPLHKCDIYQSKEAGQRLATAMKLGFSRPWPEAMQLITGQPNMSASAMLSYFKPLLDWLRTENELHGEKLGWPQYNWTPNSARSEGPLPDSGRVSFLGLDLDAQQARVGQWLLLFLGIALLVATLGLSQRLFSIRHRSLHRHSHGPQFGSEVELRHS
T1 sequence (P12821 30-1306 H988K/H992K): as the sequence (P12821 30-1306 H390K/H394K) above, with K361H, K365H, H959K, H963K counted along it
NEP, sequence (P08473 whole entry): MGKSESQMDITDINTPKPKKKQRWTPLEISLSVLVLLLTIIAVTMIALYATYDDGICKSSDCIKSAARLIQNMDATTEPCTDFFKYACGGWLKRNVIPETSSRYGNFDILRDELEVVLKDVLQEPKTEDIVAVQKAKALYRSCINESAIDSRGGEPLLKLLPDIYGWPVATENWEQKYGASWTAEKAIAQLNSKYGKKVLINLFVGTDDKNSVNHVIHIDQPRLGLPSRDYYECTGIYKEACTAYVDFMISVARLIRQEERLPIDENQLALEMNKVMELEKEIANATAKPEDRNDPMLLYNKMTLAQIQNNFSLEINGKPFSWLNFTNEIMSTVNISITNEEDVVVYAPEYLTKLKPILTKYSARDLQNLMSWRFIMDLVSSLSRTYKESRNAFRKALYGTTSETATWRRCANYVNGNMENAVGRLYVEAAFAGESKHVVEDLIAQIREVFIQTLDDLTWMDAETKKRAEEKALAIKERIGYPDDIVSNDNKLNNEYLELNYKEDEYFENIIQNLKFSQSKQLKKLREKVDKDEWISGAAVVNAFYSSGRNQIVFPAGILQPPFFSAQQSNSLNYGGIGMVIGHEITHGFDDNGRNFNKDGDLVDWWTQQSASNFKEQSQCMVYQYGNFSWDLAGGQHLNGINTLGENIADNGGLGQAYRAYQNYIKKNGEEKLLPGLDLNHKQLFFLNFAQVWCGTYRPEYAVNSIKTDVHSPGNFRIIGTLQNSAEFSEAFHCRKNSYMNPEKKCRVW

## C[C@H](NC(=O)[C@H](Cc1c[nH]c2ccccc12)NC(=O)[C@H](CCCCN)NC(=O)[C@@H]1CCC(=O)N1)C(=O)N1CCC[C@H]1C(=O)O [<E K W A P, Pyroglutamyl(<E)-Lysine(K)-tryptophane(W)-Alanine(A)-Proline (P)] ([pGlu]KWAP-OH)
[1]
  increase in the duration of the hypotensive effect compared to bradykinin alone: 5 fold
  potentiation of the hypotensive effect of bradykinin: 60%
[2]
  concentrations that potentiate the contractile action of bradykinin on isolated guinea pig ileum: 15 to 300 nM
[3]
  Ki for the N site of the ACE: in the μM range
NEP
  Ki: 50 to 150 µM
[4]; C site versus N site
  selectivity for the C-site of the ACE: not presenting a defined selectivity
[4]; pentapeptide, range stated in words
  Ki for the C site of the ACE: in the μM range
